“And” between values parts separate entries of the source, which are not always exact repeats. Identical values can stand only once.
Tested on: K98450-129-R-PDC multicell spheroids, viability
Experiment: Anticancer human tumor K98450-129-R-PDC patient-derived colon adenocarcinoma cell line growth inhibition [PI3K]
Settings: for viability, T/C: stronger effect = lower value
Outline: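 Viability of mixed-cell spheroids was determined after exposure to pairwise combinations, one partner being inavolisib, alpelisib, duvelisib or copanlisib. Highest tested concentration matched clinical Cmax where known and 10 microM where not, descending in half-log steps.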

[1] = curve of first compound, second compound 0.0316 µM
[2] = curve of first compound, second compound 0.1 µM
[3] = curve of first compound, second compound 0.316 µM
[4] = curve of first compound, second compound 1 µM
[5] = second compound 0.0316 µM, first compound 0.0316 µM
[6] = second compound 0.0316 µM, first compound 0.1 µM
[7] = second compound 0.1 µM, first compound 0.0316 µM
[8] = second compound 0.1 µM, first compound 0.1 µM
[9] = second compound 0.316 µM, first compound 0.0316 µM
[10] = second compound 0.316 µM, first compound 0.1 µM
[11] = second compound 1 µM, first compound 0.0316 µM
[12] = second compound 1 µM, first compound 0.1 µM
[13] = curve of first compound, second compound 3.16 µM
[14] = curve of first compound, second compound 10 µM
[15] = second compound 0.0316 µM, first compound 0.316 µM
[16] = second compound 0.0316 µM, first compound 1 µM
[17] = second compound 0.0316 µM, first compound 3.16 µM
[18] = second compound 0.0316 µM, first compound 10 µM
[19] = second compound 0.1 µM, first compound 0.316 µM
[20] = second compound 0.1 µM, first compound 1 µM
[21] = second compound 0.1 µM, first compound 3.16 µM
[22] = second compound 0.1 µM, first compound 10 µM
[23] = second compound 0.316 µM, first compound 0.316 µM
[24] = second compound 0.316 µM, first compound 1 µM
[25] = second compound 0.316 µM, first compound 3.16 µM
[26] = second compound 0.316 µM, first compound 10 µM
[27] = second compound 1 µM, first compound 0.316 µM
[28] = second compound 1 µM, first compound 1 µM
[29] = second compound 1 µM, first compound 3.16 µM
[30] = second compound 1 µM, first compound 10 µM
[31] = second compound 3.16 µM, first compound 0.0316 µM
[32] = second compound 3.16 µM, first compound 0.1 µM
[33] = second compound 3.16 µM, first compound 0.316 µM
[34] = second compound 3.16 µM, first compound 1 µM
[35] = second compound 3.16 µM, first compound 3.16 µM
[36] = second compound 3.16 µM, first compound 10 µM
[37] = second compound 10 µM, first compound 0.0316 µM
[38] = second compound 10 µM, first compound 0.1 µM
[39] = second compound 10 µM, first compound 0.316 µM
[40] = second compound 10 µM, first compound 1 µM
[41] = second compound 10 µM, first compound 3.16 µM
[42] = second compound 10 µM, first compound 10 µM
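Also: spheroids exposed to agents for seven days before read-out.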

In the case of `CC(C)n1nc(-c2ccc3oc(N)nc3c2)c2c(N)ncnc21` + COc1c(OCCCN2CCOCC2)ccc2c3n(c(=NC(=O)c4cnc(N)nc4)nc12)CCN3, the IC50 (curve of first compound, second compound 0.00316 µM) is reported as > 0.1 µM, the IC50 (curve of first compound, second compound 0.01 µM) is reported as > 0.1 µM and the IC50 [1] is reported as > 0.1 µM. The IC50 [2] was > 0.1 µM, the IC50 [3] was > 0.1 µM and the IC50 [4] was 0.0507 µM. The viability, T/C (second compound 0.00316 µM, first compound 0.000316 µM) was 107%, the viability, T/C (second compound 0.00316 µM, first compound 0.001 µM) was 97.4% and the viability, T/C (second compound 0.00316 µM, first compound 0.00316 µM) was 107%. For the same compound, the viability, T/C (second compound 0.00316 µM, first compound 0.01 µM) was 83.6%, the viability, T/C (second compound 0.00316 µM, first compound 0.0316 µM) was 94.1% and the viability, T/C (second compound 0.00316 µM, first compound 0.1 µM) was 72.2%. It also gave a viability, T/C (second compound 0.01 µM, first compound 0.000316 µM) of 114%, a viability, T/C (second compound 0.01 µM, first compound 0.001 µM) of 86.4% and a viability, T/C (second compound 0.01 µM, first compound 0.00316 µM) of 96%. It also gave a viability, T/C (second compound 0.01 µM, first compound 0.01 µM) of 92.2%, a viability, T/C (second compound 0.01 µM, first compound 0.0316 µM) of 94.9% and a viability, T/C (second compound 0.01 µM, first compound 0.1 µM) of 69%. The viability, T/C (second compound 0.0316 µM, first compound 0.000316 µM) was 116%, the viability, T/C (second compound 0.0316 µM, first compound 0.001 µM) was 86% and the viability, T/C (second compound 0.0316 µM, first compound 0.00316 µM) was 85.2%. For the same compound, the viability, T/C (second compound 0.0316 µM, first compound 0.01 µM) was 67.9%, the viability, T/C [5] was 74% and the viability, T/C [6] was 56.9%. The viability, T/C (second compound 0.1 µM, first compound 0.000316 µM) was 76.6%, the viability, T/C (second compound 0.1 µM, first compound 0.001 µM) was 93% and the viability, T/C (second compound 0.1 µM, first compound 0.00316 µM) was 81.7%. It also gave a viability, T/C (second compound 0.1 µM, first compound 0.01 µM) of 78.7%, a viability, T/C [7] of 67.1% and a viability, T/C [8] of 55.5%. It also gave a viability, T/C (second compound 0.316 µM, first compound 0.000316 µM) of 58.1%, a viability, T/C (second compound 0.316 µM, first compound 0.001 µM) of 60.9% and a viability, T/C (second compound 0.316 µM, first compound 0.00316 µM) of 66.1%. It also gave a viability, T/C (second compound 0.316 µM, first compound 0.01 µM) of 70.4%, a viability, T/C [9] of 73.1% and a viability, T/C [10] of 47.7%. It also gave a viability, T/C (second compound 1 µM, first compound 0.000316 µM) of 53%, a viability, T/C (second compound 1 µM, first compound 0.001 µM) of 59.4% and a viability, T/C (second compound 1 µM, first compound 0.00316 µM) of 58.5%. For the same compound, the viability, T/C (second compound 1 µM, first compound 0.01 µM) was 69.8%, the viability, T/C [11] was 54.8% and the viability, T/C [12] was 35.2%.

With `CNC(=O)c1ccc(N2C(=S)N(c3ccc(C#N)c(C(F)(F)F)c3)C(=O)C2(C)C)cc1F` + CC(Nc1ncnc2nc[nH]c12)c1cc2cccc(Cl)c2c(=O)n1-c1ccccc1 the IC50 [1] was > 10 µM, the IC50 [2] was > 10 µM and the IC50 [3] was > 10 µM. For the same compound, the IC50 [4] was > 10 µM, the IC50 [13] was > 10 µM and the IC50 [14] was > 10 µM. The viability, T/C [5] was 109%, the viability, T/C [6] was 100% and the viability, T/C [15] was 104%. For the same compound, the viability, T/C [16] was 83.1%, the viability, T/C [17] was 104% and the viability, T/C [18] was 88.9%. It also gave a viability, T/C [7] of 116%, a viability, T/C [8] of 94% and a viability, T/C [19] of 106%. For the same compound, the viability, T/C [20] was 108%, the viability, T/C [21] was 88.8% and the viability, T/C [22] was 101%. It also gave a viability, T/C [9] of 104%, a viability, T/C [10] of 99.3% and a viability, T/C [23] of 97.2%. For the same compound, the viability, T/C [24] was 92.3%, the viability, T/C [25] was 112% and the viability, T/C [26] was 109%. It also gave a viability, T/C [11] of 92.8%, a viability, T/C [12] of 90.7% and a viability, T/C [27] of 95.5%. It also gave a viability, T/C [28] of 102%, a viability, T/C [29] of 99.8% and a viability, T/C [30] of 97.1%. It also gave a viability, T/C [31] of 83.1%, a viability, T/C [32] of 95.4% and a viability, T/C [33] of 82%. For the same compound, the viability, T/C [34] was 83.1%, the viability, T/C [35] was 87.6% and the viability, T/C [36] was 96.6%. For the same compound, the viability, T/C [37] was 76.8%, the viability, T/C [38] was 93.4% and the viability, T/C [39] was 83%. The viability, T/C [40] was 96.1%, the viability, T/C [41] was 109% and the viability, T/C [42] was 88%.

With `CC(Cn1ccc(-c2ccc(C#N)c(Cl)c2)n1)NC(=O)c1cc(C(C)O)[nH]n1` (stereo not given) + CC(Nc1ncnc2nc[nH]c12)c1cc2cccc(Cl)c2c(=O)n1-c1ccccc1 the IC50 [1] was > 10 µM, the IC50 [2] was > 10 µM and the IC50 [3] was > 10 µM. The IC50 [4] was > 10 µM, the IC50 [13] was > 10 µM and the IC50 [14] was > 10 µM. The viability, T/C [5] was 119%, the viability, T/C [6] was 101% and the viability, T/C [15] was 87.3%. It also gave a viability, T/C [16] of 92.5%, a viability, T/C [17] of 102% and a viability, T/C [18] of 101%. It also gave a viability, T/C [7] of 106%, a viability, T/C [8] of 113% and a viability, T/C [19] of 107%. It also gave a viability, T/C [20] of 96.5%, a viability, T/C [21] of 98.5% and a viability, T/C [22] of 103%. For the same compound, the viability, T/C [9] was 99.5%, the viability, T/C [10] was 109% and the viability, T/C [23] was 92.5%. The viability, T/C [24] was 92.3%, the viability, T/C [25] was 104% and the viability, T/C [26] was 99%. It also gave a viability, T/C [11] of 94.7%, a viability, T/C [12] of 95.2% and a viability, T/C [27] of 91.7%. For the same compound, the viability, T/C [28] was 99.1%, the viability, T/C [29] was 93.4% and the viability, T/C [30] was 88%. For the same compound, the viability, T/C [31] was 72.7%, the viability, T/C [32] was 86.1% and the viability, T/C [33] was 86.7%. It also gave a viability, T/C [34] of 80.3%, a viability, T/C [35] of 103% and a viability, T/C [36] of 84%. The viability, T/C [37] was 84.1%, the viability, T/C [38] was 87.4% and the viability, T/C [39] was 83%. It also gave a viability, T/C [40] of 88.7%, a viability, T/C [41] of 81.8% and a viability, T/C [42] of 84.8%.

In the case of `CC1(C)CCC(CN2CCN(c3ccc(C(=O)NS(=O)(=O)c4ccc(NCC5CCOCC5)c([N+](=O)[O-])c4)c(Oc4cnc5[nH]ccc5c4)c3)CC2)=C(c2ccc(Cl)cc2)C1`, the viability, T/C (compound 0.0316 µM) is reported as 105% [middle of 4 runs], the viability, T/C (compound 0.1 µM) is reported as 106% and 102% (2×) and 85.6% and the viability, T/C (compound 0.316 µM) is reported as 107% [middle of 4 runs]. For the same compound, the viability, T/C (compound 1 µM) was 104% [middle of 4 runs] and the viability, T/C (compound 3.16 µM) was 94.5% [middle of 4 runs].

In the case of `Cn1cnc2c(F)c(Nc3ccc(Br)cc3Cl)c(C(=O)NOCCO)cc21`, the viability, T/C (compound 0.00949 µM) is reported as 92.8% [middle of 4 runs], the viability, T/C (compound 0.03 µM) is reported as 89.9% [middle of 4 runs] and the viability, T/C (compound 0.0949 µM) is reported as 93.2% [middle of 4 runs]. For the same compound, the viability, T/C (compound 0.3 µM) was 83% [middle of 4 runs], the viability, T/C (compound 0.949 µM) was 52.5% [middle of 4 runs] and the viability, T/C (compound 3 µM) was 22% [middle of 4 runs]. For the same compound, the IC50 (curve of compound) was 1.07 µM [middle of 4 runs].

With `C[C@@H](NC(=O)c1ncnc(N)c1Cl)c1ncc(C(=O)Nc2cc(C(F)(F)F)c(Cl)cn2)s1` the viability, T/C (compound 0.0316 µM) was 108% [middle of 4 runs], the viability, T/C (compound 0.1 µM) was 110% [middle of 4 runs] and the viability, T/C (compound 0.316 µM) was 119% [middle of 4 runs]. The viability, T/C (compound 1 µM) was 122% [middle of 4 runs], the viability, T/C (compound 3.16 µM) was 120% [middle of 4 runs] and the viability, T/C (compound 10 µM) was 109% [middle of 4 runs]. The IC50 (curve of compound) was > 10 µM.
